Tests used:
[1] = system: mongrel rats, AIA model; test: Adjuvant-induced arthritis in rats; type: in vivo
Procedure: Rat adjuvant-induced arthritis (AIA) model was performed at Pharmenterprises, Russia as described previously^3 and approved by Ethics Committee of Pharmenterprises. Male 10 week old mongrel rats were divided into eleven groups: negative control (#1), positive control (#2) and nine treatment groups (#3–11), ten […] in each group. Group #1 was left intact, while subplantar injection of 0.1 mL of Complete Freund’s adjuvant (CFA, Sigma) was made on day 0 at right paws of rats in groups […]. […] Disease progression was monitored by measuring volumes of the right (involved) and left (non-involved) paws on days 0, 14, 18, 21, 25, and 28.

[2] = biological target: T1, CDK5/p35 (Homo sapiens, UniProt Q00535); test: Kinase selectivity profile assay; type: biochemical; settings: 500 nM; relative to DMSO; read-out: Residual enzymatic activity
T1 construct: purchased Reaction Biology Corporation
Procedure: (§1) The activity of MT-SYK-03 against cSrc kinase and selectivity profile towards other 341 kinases was determined at Reaction Biology Corporation (Malvern, PA, USA) using the standard kinase assay protocol. […]; unbound phosphate was removed by extensive washing of filters in phosphoric acid. Kinase activity data was expressed as the percent remaining kinase activity in test samples compared to vehicle (dimethyl sulfoxide) reactions based on the radioactivity of reaction products (see Table S2). Experiment was replicated twice.

[3] = biological target: T2, ALK1/ACVRL1 (Homo sapiens, UniProt P37023); test: Kinase selectivity profile assay; type: biochemical; settings: 500 nM; relative to DMSO; read-out: Residual enzymatic activity
T2 construct: purchased Reaction Biology Corporation
Procedure: as §1

[4] = biological target: T3, TIE2/TEK (Homo sapiens, UniProt Q02763); test: Kinase selectivity profile assay; type: biochemical; settings: 500 nM; relative to DMSO; read-out: Residual enzymatic activity
T3 construct: purchased Reaction Biology Corporation
Procedure: as §1

[5] = biological target: T4, JAK1 (Homo sapiens, UniProt P23458); test: Kinase selectivity profile assay; type: biochemical; settings: 500 nM; relative to DMSO; read-out: Residual enzymatic activity
T4 construct: purchased Reaction Biology Corporation
Procedure: as §1

[6] = biological target: T5, ULK3 (Homo sapiens, UniProt Q6PHR2); test: Kinase selectivity profile assay; type: biochemical; settings: 500 nM; relative to DMSO; read-out: Residual enzymatic activity
T5 construct: purchased Reaction Biology Corporation
Procedure: as §1

[7] = biological target: T6, STK22D/TSSK1 (Homo sapiens, UniProt Q9BXA7); test: Kinase selectivity profile assay; type: biochemical; settings: 500 nM; relative to DMSO; read-out: Residual enzymatic activity
T6 construct: purchased Reaction Biology Corporation (Malvern, PA, USA)
T6 sequence (Q9BXA7 1-367): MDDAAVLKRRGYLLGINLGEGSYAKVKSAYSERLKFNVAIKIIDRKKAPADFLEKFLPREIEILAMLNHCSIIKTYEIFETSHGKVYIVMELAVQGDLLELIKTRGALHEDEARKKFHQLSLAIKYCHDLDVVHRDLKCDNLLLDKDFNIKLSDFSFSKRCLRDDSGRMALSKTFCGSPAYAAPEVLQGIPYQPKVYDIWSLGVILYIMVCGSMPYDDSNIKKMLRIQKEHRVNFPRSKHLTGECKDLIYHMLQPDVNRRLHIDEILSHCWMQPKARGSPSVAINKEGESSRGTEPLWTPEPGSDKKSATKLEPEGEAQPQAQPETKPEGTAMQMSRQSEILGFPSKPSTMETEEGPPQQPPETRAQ
Procedure: as §1

[8] = biological target: T7, MARK4 (Homo sapiens, UniProt Q96L34); test: Kinase selectivity profile assay; type: biochemical; settings: 500 nM; relative to DMSO; read-out: Residual enzymatic activity
T7 construct: purchased Reaction Biology Corporation
Procedure: as §1

[9] = biological target: T8, BRK (Homo sapiens, UniProt Q13882); test: Kinase selectivity profile assay; type: biochemical; settings: 500 nM; relative to DMSO; read-out: Residual enzymatic activity
T8 construct: purchased Reaction Biology Corporation
Procedure: as §1

[10] = biological target: T9, IR (Homo sapiens, UniProt P06213); test: Kinase selectivity profile assay; type: biochemical; settings: 500 nM; relative to DMSO; read-out: Residual enzymatic activity
T9 construct: purchased Reaction Biology Corporation
Procedure: as §1

[11] = biological target: T10, Aurora B (Homo sapiens, UniProt Q96GD4); test: Kinase selectivity profile assay; type: biochemical; settings: 500 nM; relative to DMSO; read-out: Residual enzymatic activity
T10 construct: purchased Reaction Biology Corporation
Procedure: as §1

[12] = biological target: T11, EPHA7 (Homo sapiens, UniProt Q15375); test: Kinase selectivity profile assay; type: biochemical; settings: 500 nM; relative to DMSO; read-out: Residual enzymatic activity
T11 construct: purchased Reaction Biology Corporation
Procedure: as §1

[13] = biological target: T12, AKT1 (Homo sapiens, UniProt P31749); test: Kinase selectivity profile assay; type: biochemical; settings: 500 nM; relative to DMSO; read-out: Residual enzymatic activity
T12 construct: purchased Reaction Biology Corporation
Procedure: as §1

[14] = biological target: T13, GCK/MAP4K2 (Homo sapiens, UniProt Q12851); test: Kinase selectivity profile assay; type: biochemical; settings: 500 nM; relative to DMSO; read-out: Residual enzymatic activity
T13 construct: purchased Reaction Biology Corporation
Procedure: as §1

[15] = biological target: T14, DYRK1B (Homo sapiens, UniProt Q9Y463); test: Kinase selectivity profile assay; type: biochemical; settings: 500 nM; relative to DMSO; read-out: Residual enzymatic activity
T14 construct: purchased Reaction Biology Corporation
Procedure: as §1

[16] = biological target: T15, c-Src (Homo sapiens, UniProt P12931); test: cSrc inhibition and kinase selectivity profile assay; type: biochemical; settings: 500 nM; relative to DMSO; read-out: Residual enzymatic activity
T15 construct: purchased Reaction Biology Corporation (assay service)
Procedure: as §1

T3 sequence (Q02763 23-1124): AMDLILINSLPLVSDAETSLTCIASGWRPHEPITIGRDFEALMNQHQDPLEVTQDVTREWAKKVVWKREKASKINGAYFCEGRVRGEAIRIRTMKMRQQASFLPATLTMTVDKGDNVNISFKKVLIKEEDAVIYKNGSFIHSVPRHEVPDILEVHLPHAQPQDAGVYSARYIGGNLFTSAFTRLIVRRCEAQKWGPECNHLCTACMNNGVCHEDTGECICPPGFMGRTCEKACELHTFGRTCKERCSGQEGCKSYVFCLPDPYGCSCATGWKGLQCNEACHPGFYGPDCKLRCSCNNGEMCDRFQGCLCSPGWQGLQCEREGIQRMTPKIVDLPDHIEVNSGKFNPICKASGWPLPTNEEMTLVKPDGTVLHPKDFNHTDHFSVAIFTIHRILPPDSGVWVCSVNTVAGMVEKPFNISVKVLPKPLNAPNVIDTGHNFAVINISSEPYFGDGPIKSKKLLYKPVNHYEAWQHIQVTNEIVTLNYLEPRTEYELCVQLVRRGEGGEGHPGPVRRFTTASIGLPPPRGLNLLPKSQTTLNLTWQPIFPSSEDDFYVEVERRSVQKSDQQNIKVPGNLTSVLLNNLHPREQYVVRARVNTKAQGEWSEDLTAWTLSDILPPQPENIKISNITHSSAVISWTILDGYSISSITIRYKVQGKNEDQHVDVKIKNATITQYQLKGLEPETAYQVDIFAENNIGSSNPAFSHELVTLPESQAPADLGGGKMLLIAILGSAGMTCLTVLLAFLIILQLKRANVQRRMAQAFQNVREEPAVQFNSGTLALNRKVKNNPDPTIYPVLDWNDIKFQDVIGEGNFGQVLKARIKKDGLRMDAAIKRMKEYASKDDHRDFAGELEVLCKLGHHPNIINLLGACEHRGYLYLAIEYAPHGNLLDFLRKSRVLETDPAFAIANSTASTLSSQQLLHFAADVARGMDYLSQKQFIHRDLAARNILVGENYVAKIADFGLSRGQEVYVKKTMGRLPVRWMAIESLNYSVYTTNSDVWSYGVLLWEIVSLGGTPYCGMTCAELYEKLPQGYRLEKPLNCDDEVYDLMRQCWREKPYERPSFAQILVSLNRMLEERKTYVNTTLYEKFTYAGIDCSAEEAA
T8 sequence (Q13882 whole entry): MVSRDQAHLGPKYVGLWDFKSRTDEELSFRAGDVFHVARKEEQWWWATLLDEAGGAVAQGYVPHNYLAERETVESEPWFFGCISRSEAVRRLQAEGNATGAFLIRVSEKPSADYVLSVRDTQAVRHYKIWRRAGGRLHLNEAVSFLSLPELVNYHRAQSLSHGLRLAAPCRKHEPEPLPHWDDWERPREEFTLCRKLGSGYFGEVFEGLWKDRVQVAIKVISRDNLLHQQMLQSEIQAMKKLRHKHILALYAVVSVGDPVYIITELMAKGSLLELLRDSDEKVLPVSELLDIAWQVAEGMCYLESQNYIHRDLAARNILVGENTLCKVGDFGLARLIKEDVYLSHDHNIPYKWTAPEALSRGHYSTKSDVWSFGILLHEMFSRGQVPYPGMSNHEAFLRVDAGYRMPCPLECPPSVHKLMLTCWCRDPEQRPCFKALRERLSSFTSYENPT
T10 sequence (Q96GD4 whole entry): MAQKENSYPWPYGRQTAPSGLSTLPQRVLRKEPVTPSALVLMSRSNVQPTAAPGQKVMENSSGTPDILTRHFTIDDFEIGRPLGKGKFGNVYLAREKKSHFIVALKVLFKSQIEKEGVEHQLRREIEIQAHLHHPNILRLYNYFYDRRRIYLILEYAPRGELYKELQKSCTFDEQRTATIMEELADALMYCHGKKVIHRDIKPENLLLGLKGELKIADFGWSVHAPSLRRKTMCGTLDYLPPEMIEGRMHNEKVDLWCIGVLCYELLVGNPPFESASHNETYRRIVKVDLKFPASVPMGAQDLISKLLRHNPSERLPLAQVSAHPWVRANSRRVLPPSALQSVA
T14 sequence (Q9Y463 whole entry): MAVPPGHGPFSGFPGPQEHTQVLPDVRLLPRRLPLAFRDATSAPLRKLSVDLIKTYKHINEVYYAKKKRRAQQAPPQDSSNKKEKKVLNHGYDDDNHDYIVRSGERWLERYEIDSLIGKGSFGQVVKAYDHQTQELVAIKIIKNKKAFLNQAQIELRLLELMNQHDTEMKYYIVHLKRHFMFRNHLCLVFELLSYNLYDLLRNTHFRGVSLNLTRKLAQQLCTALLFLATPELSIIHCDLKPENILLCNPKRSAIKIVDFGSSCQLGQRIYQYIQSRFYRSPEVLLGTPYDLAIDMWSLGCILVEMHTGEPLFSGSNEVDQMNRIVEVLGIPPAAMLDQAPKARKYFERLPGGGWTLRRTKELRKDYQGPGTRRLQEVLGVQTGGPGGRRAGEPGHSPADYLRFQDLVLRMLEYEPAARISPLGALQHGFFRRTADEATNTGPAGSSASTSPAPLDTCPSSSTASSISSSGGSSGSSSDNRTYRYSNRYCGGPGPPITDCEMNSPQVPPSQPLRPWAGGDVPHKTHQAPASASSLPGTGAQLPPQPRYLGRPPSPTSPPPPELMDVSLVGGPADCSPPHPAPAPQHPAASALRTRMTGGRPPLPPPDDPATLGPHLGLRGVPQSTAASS
T4 sequence (P23458 whole entry): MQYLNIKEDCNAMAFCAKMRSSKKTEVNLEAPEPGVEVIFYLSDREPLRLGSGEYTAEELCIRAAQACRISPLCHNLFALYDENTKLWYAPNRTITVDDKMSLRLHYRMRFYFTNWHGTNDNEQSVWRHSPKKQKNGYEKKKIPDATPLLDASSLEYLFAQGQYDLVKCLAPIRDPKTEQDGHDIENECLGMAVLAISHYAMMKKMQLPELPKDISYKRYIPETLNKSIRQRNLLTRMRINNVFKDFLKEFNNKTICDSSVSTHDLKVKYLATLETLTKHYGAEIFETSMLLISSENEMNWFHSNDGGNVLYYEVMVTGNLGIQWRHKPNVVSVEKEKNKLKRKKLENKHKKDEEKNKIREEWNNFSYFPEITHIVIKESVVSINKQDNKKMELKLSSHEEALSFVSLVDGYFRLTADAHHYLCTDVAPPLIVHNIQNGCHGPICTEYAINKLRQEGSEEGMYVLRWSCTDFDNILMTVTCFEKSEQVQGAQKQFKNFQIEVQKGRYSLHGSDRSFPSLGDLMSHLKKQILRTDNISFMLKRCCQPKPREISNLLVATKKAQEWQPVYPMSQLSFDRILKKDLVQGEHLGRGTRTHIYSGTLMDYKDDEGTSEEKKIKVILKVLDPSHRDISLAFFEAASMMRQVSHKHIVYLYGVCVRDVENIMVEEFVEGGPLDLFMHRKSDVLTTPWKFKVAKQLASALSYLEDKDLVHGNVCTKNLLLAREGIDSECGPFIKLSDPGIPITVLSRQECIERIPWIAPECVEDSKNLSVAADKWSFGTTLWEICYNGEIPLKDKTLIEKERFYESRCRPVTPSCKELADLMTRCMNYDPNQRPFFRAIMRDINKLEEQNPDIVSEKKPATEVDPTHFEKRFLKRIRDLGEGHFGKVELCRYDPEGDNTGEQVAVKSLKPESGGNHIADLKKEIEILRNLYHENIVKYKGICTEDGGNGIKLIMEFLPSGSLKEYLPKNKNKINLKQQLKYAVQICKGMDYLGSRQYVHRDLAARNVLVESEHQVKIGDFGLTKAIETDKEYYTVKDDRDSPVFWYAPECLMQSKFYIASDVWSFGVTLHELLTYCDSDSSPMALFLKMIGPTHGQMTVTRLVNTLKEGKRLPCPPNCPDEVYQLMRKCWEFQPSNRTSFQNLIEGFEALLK
T1 sequence (Q00535 whole entry): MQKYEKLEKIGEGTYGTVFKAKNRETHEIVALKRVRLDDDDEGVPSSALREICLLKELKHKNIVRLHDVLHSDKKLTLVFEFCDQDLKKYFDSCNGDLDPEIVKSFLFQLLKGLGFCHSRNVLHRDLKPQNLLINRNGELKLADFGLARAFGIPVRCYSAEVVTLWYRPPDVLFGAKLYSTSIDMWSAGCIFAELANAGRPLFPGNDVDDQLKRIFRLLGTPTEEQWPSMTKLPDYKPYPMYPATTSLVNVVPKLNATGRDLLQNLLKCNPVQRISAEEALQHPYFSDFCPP
T1 sequence (Q15078 whole entry partner): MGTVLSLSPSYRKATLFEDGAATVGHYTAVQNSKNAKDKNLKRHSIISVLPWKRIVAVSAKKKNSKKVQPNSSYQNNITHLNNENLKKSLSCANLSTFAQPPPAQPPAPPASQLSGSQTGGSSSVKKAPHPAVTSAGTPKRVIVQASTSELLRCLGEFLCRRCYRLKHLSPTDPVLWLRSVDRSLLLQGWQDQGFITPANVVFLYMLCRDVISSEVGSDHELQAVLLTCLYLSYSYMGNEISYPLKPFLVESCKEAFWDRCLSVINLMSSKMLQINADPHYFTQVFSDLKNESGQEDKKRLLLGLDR
T2 sequence (P37023 22-503): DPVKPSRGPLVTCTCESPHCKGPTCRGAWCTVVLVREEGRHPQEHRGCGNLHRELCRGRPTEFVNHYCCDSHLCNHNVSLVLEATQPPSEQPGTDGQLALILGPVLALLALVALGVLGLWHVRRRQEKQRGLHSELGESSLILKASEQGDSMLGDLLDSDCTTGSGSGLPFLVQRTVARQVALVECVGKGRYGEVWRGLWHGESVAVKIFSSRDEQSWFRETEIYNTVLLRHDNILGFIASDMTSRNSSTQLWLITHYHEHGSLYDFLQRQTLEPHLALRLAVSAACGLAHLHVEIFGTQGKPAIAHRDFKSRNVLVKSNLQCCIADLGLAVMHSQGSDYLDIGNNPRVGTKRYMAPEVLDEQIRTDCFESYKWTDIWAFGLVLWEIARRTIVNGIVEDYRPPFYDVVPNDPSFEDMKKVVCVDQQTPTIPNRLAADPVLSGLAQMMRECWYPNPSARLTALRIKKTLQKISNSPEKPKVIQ

**Q.** Which results are given for `CN(Cc1cnc2nc(N)nc(N)c2n1)c1ccc(C(=O)N[C@@H](CCC(=O)O)C(=O)O)cc1` [MTX, methotrexate, reference compound]?
**A.** Animal death ([1]; Methotrexate 0.2 mg/kg QD intragastric, 14 days): 0%; Animal death ([1]; Methotrexate 0.2 mg/kg QD intragastric, 18 days): 0%; Animal death ([1]; Methotrexate 0.2 mg/kg QD intragastric, 21 days): 0%; Animal death ([1]; Methotrexate 0.2 mg/kg QD intragastric, 25 days): 10%; Animal death ([1]; Methotrexate 0.2 mg/kg QD intragastric, 28 days): 20%; Animal death ([1]; Methotrexate 0.5 mg/kg QD intragastric, 14 days): 0%; Animal death ([1]; Methotrexate 0.5 mg/kg QD intragastric, 18 days): 0%; Animal death ([1]; Methotrexate 0.5 mg/kg QD intragastric, 21 days): 0%; Animal death ([1]; Methotrexate 0.5 mg/kg QD intragastric, 25 days): 20%; Animal death ([1]; Methotrexate 0.5 mg/kg QD intragastric, 28 days): 70%; Rats died ([1]; rat AIA, MTX 0.2 mg/kg): 20%; Rats died ([1]; rat AIA, MTX 0.5 mg/kg): 70%; Volume of treated (CFA-injected) paws ([1]; rat AIA, day 28): statistically significant reductions of paw volume; Volume of non-involved paws ([1]; rat AIA, high-dose MTX, day 28): decreased the volume of non-involved paws; Volume of non-involved paws ([1]; rat AIA, low-dose MTX, day 28): no statistically significant effect

**Q.** Which results are given for `COc1cc(Nc2ncc(F)c(Nc3ccc4c(n3)NC(=O)C(C)(C)O4)n2)cc(OC)c1OC` [R406, reference compound]?
**A.** remaining activity at 0.5 µM [2]: 82.9%; remaining activity at 0.5 µM [3]: 100%; remaining activity at 0.5 µM [4]: 69.9%; remaining activity at 0.5 µM [5]: 0%; remaining activity at 0.5 µM [6]: 20.3%; remaining activity at 0.5 µM [7]: 9.6%; remaining activity at 0.5 µM [8]: 46.7%; remaining activity at 0.5 µM [9]: 27.6%; remaining activity at 0.5 µM [10]: 77.5%; remaining activity at 0.5 µM [11]: 40.2%; remaining activity at 0.5 µM [12]: 10.5%; remaining activity at 0.5 µM [13]: 99.4%; remaining activity at 0.5 µM [14]: 77.5%; remaining activity at 0.5 µM [15]: 72.5%; remaining activity at 0.5 µM [16]: 6.8%
